The values below come from PubChem BioAssay (NCI).

Test systems include 786-0 renal; CAKI-1 renal; CCRF-CEM leukemia; MDA-MB-231 breast; MDA-MB-435; NCI-H460 lung; OVCAR-5 ovarian; RXF 393 renal; SF-539 CNS; SR leukemia.
Assay in all cases: NCI tumour cell line growth inhibition, 48 h

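Cultured in 96-well plates, cells were exposed to test compound for 48 hours across five concentrations. GI50: concentration for 50% inhibition of growth. At the TGI there is no net growth.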

For the molecule `C[C@]12C[C@H](CCCCCCNCCOC(=O)NCCCc3ccc(N(CCCl)CCCl)cc3)C3=C4CCC(=O)C=C4CCC3C1CC[C@@H]2O` (stereo not given in full), the GI50 is 0.841 µM in the assay on 786-0 renal; 1.55 µM with CAKI-1 renal; 0.234 µM in the assay on CCRF-CEM leukemia; 2.01 µM in the assay with MDA-MB-231 breast; 2.38 µM in the assay with MDA-MB-435; 0.672 µM in the assay on NCI-H460 lung. The GI50 in the assay on OVCAR-5 ovarian was 5.84 µM; in the assay on RXF 393 renal, 0.294 µM; in the assay on SF-539 CNS it was 1.4 µM. For the same molecule, the TGI was determined as 3.89 µM with 786-0 renal; 3.3 µM in the assay with CAKI-1 renal; 0.621 µM with CCRF-CEM leukemia; 3.44 µM with MDA-MB-231 breast; 6.53 µM with MDA-MB-435; 4.08 µM in the assay with NCI-H460 lung. Moreover, the TGI in the assay on OVCAR-5 ovarian is 11 µM; in the assay on RXF 393 renal, 1.21 µM; in the assay with SF-539 CNS it was 3.33 µM.

Consider `C=CCNC(=O)N(CCCCC(NC(C)=O)C(=O)NCc1ccccc1)Cc1ccccc1` (stereo not given), for which the TGI with 786-0 renal, in the assay on CAKI-1 renal, in the assay with CCRF-CEM leukemia, in the assay on NCI-H460 lung, with OVCAR-5 ovarian and in the assay on RXF 393 renal was greater than 100 µM throughout. Also, the TGI in the assay with SF-539 CNS is greater than 100 µM.

Take `CCc1ccccc1NC(=O)C1=C(C)NC(C)=C(C(=O)Nc2ccccc2CC)C1c1ccccc1Cl`: the TGI with 786-0 renal, in the assay on CAKI-1 renal, in the assay on CCRF-CEM leukemia, with NCI-H460 lung, in the assay with OVCAR-5 ovarian and in the assay on RXF 393 renal was greater than 100 µM throughout. Moreover, the TGI with SF-539 CNS was greater than 100 µM.

With `O/N=C1/C(=C/c2ccc3c(c2)OCO3)CCCC1C(NO)c1ccc2c(c1)OCO2` (stereo not given), the TGI was 96.3 µM in the assay on 786-0 renal; 94.6 µM in the assay on CAKI-1 renal; 53 µM in the assay with CCRF-CEM leukemia; 71.1 µM in the assay with NCI-H460 lung; 55 µM in the assay on RXF 393 renal; 32.4 µM in the assay on SF-539 CNS.

Regarding `CCOC(=O)/C(C=Nc1ccc(-c2nc3ccccc3[nH]2)cc1)=C(/C)O`, the GI50 was 11 µM in the assay with 786-0 renal; 17.6 µM in the assay on CAKI-1 renal; 9.65 µM in the assay with MDA-MB-231 breast; 14.9 µM in the assay with MDA-MB-435; 12.1 µM in the assay on NCI-H460 lung; 17.1 µM with OVCAR-5 ovarian. The TGI with 786-0 renal was 23.5 µM; in the assay on CAKI-1 renal, greater than 50 µM; in the assay with MDA-MB-231 breast, 31.3 µM; in the assay on MDA-MB-435, 43.4 µM; in the assay with NCI-H460 lung, greater than 50 µM; in the assay on OVCAR-5 ovarian, 36.3 µM.

With `COc1ccc(/C=N/N=C(\N)NO)cc1O`, the TGI in the assay with 786-0 renal is 55.7 µM; in the assay with CAKI-1 renal it was greater than 100 µM; in the assay with CCRF-CEM leukemia, greater than 100 µM; with NCI-H460 lung, greater than 100 µM; in the assay on OVCAR-5 ovarian it was greater than 100 µM; in the assay on RXF 393 renal, greater than 100 µM. Also, the TGI in the assay with SF-539 CNS turned out to be 94.4 µM.

Regarding `OC(Cc1ccncc1)C(Cl)(Cl)Cl` (stereo not given), the GI50 in the assay on 786-0 renal was greater than 100 µM; in the assay with CAKI-1 renal, 32.4 µM; with CCRF-CEM leukemia, 32 µM; with MDA-MB-231 breast, greater than 100 µM; with MDA-MB-435, greater than 100 µM; with NCI-H460 lung it was greater than 100 µM. The GI50 in the assay on OVCAR-5 ovarian, with RXF 393 renal and with SF-539 CNS was greater than 100 µM throughout. Also, the TGI with 786-0 renal, in the assay with CAKI-1 renal, in the assay with CCRF-CEM leukemia, in the assay with MDA-MB-231 breast, in the assay with MDA-MB-435 and with NCI-H460 lung was greater than 100 µM in each case. Further, the TGI in the assay with OVCAR-5 ovarian, with RXF 393 renal and in the assay with SF-539 CNS was greater than 100 µM in each case.

Regarding `CCOC(=O)C12CCCC1(O)N(NC(=O)OC(C)(C)C)C(C)=C2C(=O)OC` (stereo not given), the TGI in the assay on 786-0 renal, with CAKI-1 renal, in the assay with CCRF-CEM leukemia, in the assay on NCI-H460 lung, with OVCAR-5 ovarian and in the assay with SF-539 CNS was greater than 100 µM in each case.

For `C=C1C(=O)O[C@H]2[C@H]1CC/C(COC(=O)CSCSCC(=O)OC/C1=C/CC[C@@]3(C)O[C@H]3[C@H]3OC(=O)C(=C)[C@@H]3CC1)=C\CC[C@@]1(C)O[C@@H]21`, the GI50 is 1.41 µM with 786-0 renal; 1.74 µM in the assay with CAKI-1 renal; 0.304 µM with CCRF-CEM leukemia; 1.39 µM in the assay with MDA-MB-231 breast; 2 µM in the assay with MDA-MB-435; 2.1 µM with NCI-H460 lung. The GI50 was 1.95 µM with OVCAR-5 ovarian, 1.23 µM in the assay on RXF 393 renal and 1.47 µM in the assay on SF-539 CNS. The TGI in the assay on 786-0 renal is 2.89 µM; in the assay with CAKI-1 renal it was 3.32 µM; in the assay with CCRF-CEM leukemia, 1.47 µM; with MDA-MB-231 breast it was 3 µM; with MDA-MB-435, 4.56 µM; in the assay with NCI-H460 lung it was 4.86 µM. The TGI in the assay on OVCAR-5 ovarian came out at 3.92 µM; in the assay on RXF 393 renal, 2.83 µM; with SF-539 CNS it was 2.89 µM.

As for `COC(=O)CC1C[C@H](C#N)N(C(=O)c2ccccc2)C[C@@H]1CC[N+](=O)[O-]` (stereo not given in full), the TGI with 786-0 renal, in the assay on CCRF-CEM leukemia, in the assay with NCI-H460 lung, with OVCAR-5 ovarian, in the assay on RXF 393 renal and with SF-539 CNS was greater than 100 µM in each case. The molecule also had a TGI in the assay with SR leukemia greater than 100 µM.

As to `CC1=C(C(=O)Nc2cc(=O)n(C)c(=O)n2C)C(c2ccco2)C(C(=O)Nc2cc(=O)n(C)c(=O)n2C)=C(C)N1`, the TGI in the assay with 786-0 renal, in the assay on CAKI-1 renal, in the assay with CCRF-CEM leukemia, in the assay on NCI-H460 lung, in the assay on OVCAR-5 ovarian and in the assay on RXF 393 renal was greater than 100 µM each time. The molecule also displayed a TGI in the assay with SF-539 CNS greater than 100 µM.

As for `COC(=O)NC(=O)c1cn(C2OC(CO)C(O)C2O)c(=O)[nH]c1=O` (stereo not given), the TGI in the assay with 786-0 renal, with CAKI-1 renal, in the assay on NCI-H460 lung, in the assay with OVCAR-5 ovarian, in the assay with SF-539 CNS and in the assay on SR leukemia was greater than 100 µM in each case.

Regarding `O=C(O)CCN(CCCCN(CCC(=O)O)CCC(=O)O)CCC(=O)O`, the TGI with 786-0 renal, in the assay on CAKI-1 renal, in the assay on CCRF-CEM leukemia, with NCI-H460 lung, in the assay with OVCAR-5 ovarian and in the assay with SF-539 CNS was greater than 100 µM throughout.
